According to article PMC11784839, “Monoaminergic neurotransmitters are bimodal effectors of tau aggregation” (Science Advances, 2025):

Molecular target: tau (Homo sapiens, UniProt P10636)
Test: MCE Phenols Library screening, tau biosensor cell seeding assay (AvZ)
Format: cell-based
Settings: for AvZ (average z score of seeding, SDs from the mean level of seeding): 10 μM phenol in cell cultures, AD brain homogenate preincubated 16 hours, two biological replicates, positive = catalyzes seeding, negative = inhibits; for Z repl 1 / Z Repl 2: Z score; for Z repl 1 / raw data 1: replicate 1; for Z Repl 2 / raw data 2: replicate 2
[1] = average puncta of the two replicates
[2] = average Z score of the two replicates, tau seeding
[3] = average Z score of the two replicates, MCE Phenols Library screen
[4] = average Z score of two replicates, Phenols Library screen

tau, sequence (P10636 623-695 limits assumed): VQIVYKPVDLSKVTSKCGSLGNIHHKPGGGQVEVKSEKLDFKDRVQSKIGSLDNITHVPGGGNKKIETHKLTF

Compound | AvZ (average z score of seeding, SDs from the mean level of seeding) | Z repl 1 | Z Repl 2 | av puncta (average of raw data 1 and 2) | raw data 1 (puncta) | raw data 2 (puncta) | av Z (average Z score of the two replicates, tau biosensor seeding, MCE Phenols Library screen) | av puncta [1] | av Z [2] | av Z [3] | raw data 1 (raw puncta) | raw data 2 (raw puncta) | av Z [4]
O=C(O)Cc1ccccc1O [2-Hydroxyphenylacetic acid] | -0.831 | -1.341 | -0.32 | 9796.98 | 10246.8 | 9347.15 | – | – | – | – | – | – | –
COc1cc2c(cc1O)CC[C@@H]1[C@@H]2CC[C@]2(C)[C@@H](O)CC[C@@H]12 [2-Methoxyestradiol] | – | 1.646 | 0.7 | 33178.1 | 46109.4 | 20246.7 | 1.173 | – | – | – | – | – | –
OCCc1ccccc1 [2-Phenylethanol] | 0.671 | 1.167 | 0.175 | 27499.2 | 40362.2 | 14636.1 | – | – | – | – | – | – | –
CC(=O)c1ccc(O)c(O)c1 [3',4'-Dihydroxyacetophenone] | -0.667 | -0.338 | -0.997 | – | 22292.7 | 2117.17 | – | 12205 | – | – | – | – | –
COc1cc(/C=C/c2ccc(O)c(O)c2)cc(OC)c1 [3'-Hydroxypterostilbene] | – | -0.14 | 0.484 | 21302.3 | 24671.3 | 17933.3 | – | – | 0.172 | – | – | – | –
O=c1c(-c2ccc(O)c(O)c2)coc2c([C@@H]3O[C@H](CO)[C@@H](O)[C@H](O)[C@H]3O)c(O)ccc12 [3'-Hydroxypuerarin] | – | -0.715 | -0.346 | – | 17766.4 | 9073.25 | – | 13419.8 | – | -0.53 | – | – | –
COc1cc(-c2coc3c([C@@H]4O[C@H](CO)[C@@H](O)[C@H](O)[C@H]4O)c(O)ccc3c2=O)ccc1O [3'-Methoxypuerarin] | – | 0.567 | -0.096 | 22452.2 | 33160 | 11744.3 | – | – | 0.236 | – | – | – | –
COc1cc(O)cc(OC)c1 [3,5-Dimethoxyphenol] | 0.275 | 0.645 | -0.096 | 22916.8 | 34097.4 | 11736.1 | – | – | – | – | – | – | –
O=C(O)CCc1cccc(O)c1 [3-(3-Hydroxyphenyl)propionic acid] | 1.337 | 1.121 | 1.553 | 34577.7 | 39805 | 29350.4 | – | – | – | – | – | – | –
N[C@@H](Cc1ccc(O)c(Cl)c1)C(=O)O [3-Chloro-L-tyrosine] | -0.032 | 0.451 | -0.515 | 19517.9 | 31767.4 | 7268.49 | – | – | – | – | – | – | –
O=Cc1cccc(O)c1 [3-Hydroxybenzaldehyde] | -0.137 | 0.08 | -0.354 | 18142.7 | 27305.1 | 8980.23 | – | – | – | – | – | – | –
O=C(O)c1cccc(O)c1 [3-Hydroxybenzoic acid] | -0.814 | -0.749 | -0.88 | 10365.4 | 17360.5 | 3370.33 | – | – | – | – | – | – | –
O=C(O)CNC(=O)c1cccc(O)c1 [3-Hydroxyhippuric acid] | 0.023 | 0.493 | -0.448 | 20125.5 | 32267.3 | 7983.73 | – | – | – | – | – | – | –
O=C(O)Cc1cccc(O)c1 [3-Hydroxyphenylacetic acid] | -0.027 | 0.164 | -0.218 | 19376.5 | 28313.1 | 10440 | – | – | – | – | – | – | –
COc1cc(CCN)ccc1O [3-Methoxytyramine] | -0.304 | 0.052 | -0.661 | – | – | – | – | 16341.1 | – | – | 26971.9 | 5710.28 | –
Cc1cccc(O)c1O [3-Methylcatechol] | -0.42 | -0.458 | -0.383 | – | – | – | – | 14763.7 | – | – | 20851.2 | 8676.12 | –
N[C@@H](Cc1ccc(O)c([N+](=O)[O-])c1)C(=O)O [3-Nitro-L-tyrosine] | 1.177 | 0.936 | 1.418 | 32750.4 | 37588.7 | 27912.2 | – | – | – | – | – | – | –
COC(=O)[C@]1(O)C[C@@H](O)[C@@H](O)[C@H](OC(=O)/C=C/c2ccc(O)c(O)c2)C1 [3-O-Caffeoylquinic acid methyl ester] | – | -0.373 | 0.274 | 18786.4 | 21876.3 | 15696.4 | – | – | – | – | – | – | -0.049
COc1cc(C(=O)O)cc(O)c1O [3-O-Methylgallic acid] | -0.786 | -1.04 | -0.532 | 10472 | 13858.8 | 7085.12 | – | – | – | – | – | – | –
O=c1cc(-c2ccc(O)cc2)oc2cccc(O)c12 [4',5-Dihydroxyflavone] | – | 0.443 | 0.397 | 24336.3 | 31664.4 | 17008.3 | – | – | 0.42 | – | – | – | –
CC(=O)c1ccc(O)c(C)c1 [4'-Hydroxy-3'-methylacetophenone] | -0.112 | 0.035 | -0.259 | 18387.5 | 26771.9 | 10003.1 | – | – | – | – | – | – | –
O=C(/C=C/c1ccccc1)c1ccc(O)cc1 [4'-Hydroxychalcone] | – | 0.138 | 0.314 | 22065.5 | 28009.6 | 16121.4 | – | – | 0.226 | – | – | – | –
COc1ccc(/C=C/c2cc(O)cc(O)c2)cc1 [4'-Methoxyresveratrol] | – | 0.613 | 0.599 | 26435.9 | 33711.1 | 19160.7 | – | – | 0.606 | – | – | – | –
COc1cc(O)c(C(=O)/C=C/c2ccc(O)cc2)cc1CC=C(C)C [4'-O-Methylbavachalcone] | – | -0.312 | 0.23 | 18915.2 | 22607.8 | 15222.5 | – | – | – | – | – | – | -0.041
O=C(C=Cc1ccc(O)c(O)c1)OC1CC(O)(C(=O)O)CC(O)C1OC(=O)C=Cc1ccc(O)c(O)c1 (stereo not drawn) [4,5-Dicaffeoylquinic acid] | – | -1.017 | -0.252 | – | 14137.8 | 10071.7 | – | 12104.8 | – | -0.635 | – | – | –
OCC(O)c1ccc(O)c(O)c1 (stereo not drawn) [4-(1,2-Dihydroxyethyl)benzene-1,2-diol] | -0.242 | -0.442 | -0.042 | – | – | – | – | 16682.4 | – | – | 21044.7 | 12320.1 | –
